# Data taken from paper PMC8011081, “Bio-guided isolation of anti-leishmanial natural products from Diospyros gracilescens L. (Ebenaceae)” (BMC Complementary Medicine and Therapies, 2021).
# Read-outs that look alike come from different tables or passages of the source.
# Columns and labels:
# L. donovani amastigotes = test: Inhibitory assay against intracellular L. donovani amastigotes in Raw 264.7 macrophages (resazurin); type: cell-based; conditions: Leishmania donovani, RAW264.7, isolated compounds, mean ± SD
# Procedure: The effect of plant isolates against the intracellular amastigote form of L. donovani was evaluated essentially as described by Jain et al. with some modifications. Briefly, macrophage Raw 264.7 cells ([…]) were seeded in 96 well plates and incubated for 6 h at 37 °C under 5% CO2 for adhesion of the cells. Afterwards, the non-adherent cells were washed-out with sterile PBS. The adherent Raw 264.7 cells were infected with metacyclic promastigotes (4 × 10^5 cells) at an infection ratio of 1:10 macrophage: parasites and incubated for 24 h at 37 °C under 5% CO2 in order to allow infection of macrophages by metacyclic promastigotes. Thereafter, the overlying medium was removed, and the monolayer cells with internalized amastigotes were carefully washed four times with PBS to remove free parasites. Freshly prepared M199 medium containing 10% FBS and the test extracts were added in triplicate to the infected cells at serially diluted concentrations and incubated for 48 h at 37 °C under 5% CO2. After incubation, 0.05% Sodium dodecyl sulfate (SDS) was added in each well for 30 s for controlled lysis followed by M199 with 10% FBS as macrophage lysis stopper. Resazurin reagent (250 μg/mL) was thereafter added in each well and the plates were incubated for 24 h followed by fluorescence recording at λexcitation = 530 nm and λemission = 590 nm using a Tecan Infinite M200 microplate reader (Tecan). Inhibition percentages were calculated using Microsoft Excel Software and median inhibitory concentration (IC50) obtained from dose-response curves using GraphPad Prism 5.0. Software.
# [1] = Cytotoxicity assay (Alamar blue); conditions: mouse
# Procedure: The cytotoxicity profile of extracts, fractions and compounds was assessed using the Alamar blue assay against Raw 264.7 cells duly cultivated in complete Dulbecco’s Modified Eagle’s Medium (DMEM) containing 13.5 g/L DMEM (Sigma Aldrich), 10% fetal Bovine Serum (Sigma Aldrich), 0.2% sodium bicarbonate (w/v) (Sigma, Darmstadt, Germany) and 50 μg/mL gentamycin (Sigma Aldrich). Globally, macrophages were seeded into 96-wells cell-culture flat-bottomed plates at a density of 10^4 cells in final volume of 100 μL of complete medium/well and incubated for 24 h at 37 °C, 5% CO2, 70% RH in a ICO 105 memmert incubator (memmert, Schwabach, Germany) to allow cell adhesion. Ten μL of each serially diluted test sample were added in triplicate wells and assay plates were then incubated for 48 h in the same experimental conditions. Growth control consisted of 0.1%DMSO (100% growth) and positive control of podophyllotoxin (Sigma, Darmstadt, Germany) at 20 μM. Cell proliferation was checked by adding 10 μL of a stock solution of resazurin (0.15 mg/mL in sterile PBS) to each well followed by plates incubation during 4 h. Fluorescence was then read on a Tecan Infinite M200 fluorescence multi-well plate reader at an excitation/emission of 530/590 nm. […] Selectivity indices (CC50/IC50, defining the balance between cytotoxicity and antileishmanial activity) were calculated for each test substance.
# [2] = test system: L. donovani promastigotes (MHOM/SD/62/1S); test: Inhibitory assay against L. donovani promastigotes (resazurin colorimetric assay); type: cell-based; conditions: Leishmania donovani, mean ± SD, triplicate
# Procedure: The cryopreserved promastigote form of L. donovani (1S (MHOM/SD/62/1S) was obtained from Bei Resources (https://www.beiresources.org/) and is routinely cultured at the Antimicrobial and Biocontrol Agents Unit, University of Yaoundé I, in Medium 199 (Sigma, Darmstadt, Germany) supplemented with 10% Heat-Inactivated fetal Bovine Serum (HIFBS) (Sigma, Darmstadt, Germany) and 100 IU/mL penicillin and 100 μg/mL streptomycin. The culture was maintained in 75 Cm^2 cell culture flask at 28 °C and checked for growth daily and sub-cultured everyday 72 h.
# The stock solutions were prepared by dissolving each sample in 100% dimethyl sulfoxide (DMSO) and subsequently diluted serially in non-supplemented culture medium. […] The viability rate of promastigotes positively correlated with the amount of pink resorufin that was produced through the reduction of blue resazurin by the dehydrogenase enzymes in the inner mitochondrial membrane of the living parasites. Briefly, promastigotes from a logarithmic phase culture (4 × 10^5 cells/mL; 90 μL) were seeded in 96-well microtiter plates and were treated with 10 μl of inhibitors at different triplicate concentrations ranging 100 μg/mL-0.16 μg/mL for extracts and fractions and 50 μg/mL-0.08 μg/mL for compounds. The final concentration of DMSO in each well was not higher than 1%. Plates were incubated for 28 h at 28 °C, followed by the addition of 1 mg/mL resazurin (Sigma, Darmstadt, Germany). […] After an additional incubation for 44 h, plates were then read on a Magelan Infinite M200 fluorescence multi-well plate reader (Tecan, Männedorf, Switzerland) at an excitation and emission wave lengths of 530 and 590 nm respectively.
# [3] = test system: L. donovani promastigotes; test: Concentration/time inhibition (kill) kinetics, trypan blue counting; type: cell-based, Leishmania donovani
# Procedure: The number of viable parasites was determined after every 24 h over 120 h by staining with trypan blue. Quantification of viable parasites was achieved by counting the parasites with clear cytoplasm (non-stained) using a Neubauer hemocytometer with cover slips. Three independent experiments were performed for each sample.
# [4] = isolated compounds, read-out: IC50 (Promastigotes)
Compound,IC50 (L. donovani amastigotes),CC50 at 48 h ([1]; Raw 264.7 cells (macrophages)),"IC50 [2, 4]",CC50 [1],"Effect on promastigote replication / growth ([3]; 0.5x IC50, IC50, 2x IC50, 4x IC50, viable parasites counted every 24 h)","Cidal effect ([3]; all tested concentrations, exposure up to 120 h)","IC50 ([2]; crude extracts, H20: EtOH, read-out: Promastigote of L. donovani (MHOM/SD/62/1S) IC50 ± SD)","IC50 ([2]; trunk extract and fractions, read-out: IC50 (Promastigotes))",CC50 at 48 h [1]
"C=C(C)[C@@H]1CC[C@]2(C)CC[C@]3(C)[C@H](CC[C@@H]4[C@@]5(C)CC[C@H](O)C(C)(C)[C@@H]5CC[C@]43C)[C@@H]12 [Lupeol (1), Lupeol]",46.7 ± 0.65 µM,19.3 ± 0.3 µM,23.22 ± 0.08 µM,–,–,–,–,–,–
"C=C(C)[C@@H]1CC[C@]2(C(=O)O)CC[C@]3(C)[C@H](CC[C@@H]4[C@@]5(C)CC[C@H](O)C(C)(C)[C@@H]5CC[C@]43C)[C@@H]12 [Betulinic acid (3), Betulinic acid]",18.46 ± 0.01 µM,–,13.69 ± 0.07 µM,82.39 ± 0.09 µM,–,–,–,–,–
"OC1CC(O)C(O)C(O)C1O (centres unmarked) [1-deoxyinositol (7), 1-deoxyinositol]",120 ± 0.18 µM,–,241.71 ± 0.16 µM,> 1220 µM,–,–,–,–,–
"C[C@@H]1[C@H](O)[C@@H](C)/C=C/C=C/C=C/C=C/C=C/C=C/C=C/[C@H](O[C@@H]2O[C@H](C)[C@@H](O)[C@H](N)[C@@H]2O)C[C@@H]2O[C@](O)(C[C@@H](O)C[C@@H](O)[C@H](O)CC[C@@H](O)C[C@@H](O)CC(=O)O[C@H]1C)C[C@H](O)[C@H]2C(=O)O [Amphotericin B, reference compound]",–,–,0.37 ± 0.22 µM,–,significant reduction in promastigote replication after 24 h,no evidence of cidal effect,0.34 ± 0.22 µg/mL,0.34 ± 0.22 µg/mL,–
"CCC(CCC(C)C1CCC2C3CC=C4CC(OC5OC(CO)C(O)C(O)C5O)CCC4(C)C3CCC12C)C(C)C [β-sitosterol glucoside (6), β-sitosterol 3-O-D-glucopyranoside]",32 ± 0.22 µM,–,49.34 ± 0.12 µM,–,–,–,–,–,28.6 ± 0.07 µM
